Where two headings read alike, the source gives them in different places.
Legend:
[1] = tested on: Key Broadleaf Weed and Crop Species; test: Post-emergent Test II herbicidal activity (Table 5); format: in vivo; settings: post-emergence, 336 h, post-emergent, 14 days after application; for pest or weed control at 70 g/ha: 70 g ai/ha; for pest or weed control at 140 g/ha: 140 g ai/ha
How it was run: (§1)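 Spray rates: a highest rate plus ½×, ¼×, ⅛×, 1/16×, all delivered at 187 L/ha to plants at the first–second true leaf stage. Readout is a visual percent injury score at 14 d, where 100 means complete kill.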

[2] = tested on: Key Grass and Sedge Weeds as well as Grass Crops; test: Post-emergent Test II herbicidal activity (Table 6); format: in vivo; settings: post-emergence, 336 h; for pest or weed control at 70 g/ha: application rate 70 g ai/ha; for pest or weed control at 140 g/ha: application rate 140 g ai/ha
How it was run: as §1

[3] = ABUTH: velvetleaf (Abutilon theophrasti), read-out: Visual Growth Reduction (%) 14 Days After Application ABUTH
[4] = AMARE: redroot pigweed (Amaranthus retroflexus), read-out: Visual Growth Reduction (%) 14 Days After Application AMARE
[5] = BRSNN: oilseed-rape, canola (Brassica napus), read-out: Visual Growth Reduction (%) 14 Days After Application BRSNN
[6] = CHEAL: lambsquarters (Chenopodium album), read-out: Visual Growth Reduction (%) 14 Days After Application CHEAL
[7] = EPHHL: wild poinsettia (Euphorbia heterophylla), read-out: Visual Growth Reduction (%) 14 Days After Application EPHHL
[8] = HELAN: sunflower (Helianthus annuus), read-out: Visual Growth Reduction (%) 14 Days After Application HELAN
[9] = VIOTR: wild pansy (Viola tricolor), read-out: Visual Growth Reduction (%) 14 Days After Application VIOTR
[10] = CYPES: yellow nutsedge (Cyperus esculentus), read-out: Visual Growth Reduction (%) 14 Days After Application, CYPES
[11] = DIGSA: crabgrass (Digitaria sanguinalis), read-out: Visual Growth Reduction (%) 14 Days After Application, DIGSA
[12] = ECHCG: barnyardgrass (Echinochloa crus-galli), read-out: Visual Growth Reduction (%) 14 Days After Application, ECHCG
[13] = ORYSA: rice (Oryza sativa), read-out: Visual Growth Reduction (%) 14 Days After Application, ORYSA
[14] = SETFA: giant foxtail (Setaria faberi), read-out: Visual Growth Reduction (%) 14 Days After Application, SETFA
[15] = SORVU: grain sorghum (Sorghum vulgare), read-out: Visual Growth Reduction (%) 14 Days After Application, SORVU
[16] = TRZSS (wheat, Triticum aestivum), read-out: Visual Growth Reduction (%) 14 Days After Application, TRZSS
[17] = ZEAMX: maize, corn (Zea mays), read-out: Visual Growth Reduction (%) 14 Days After Application, ZEAMX

COC(=O)c1nc(-c2cc(F)c(C(F)(F)F)cc2F)cc(N)c1Cl [Compound 70, methyl 4-amino-3-chloro-6-(2,5-difluoro-4-(trifluoromethyl)phenyl)picolinate]
pest or weed control at 70 g/ha [1, 3]: 95 to 100%
pest or weed control at 140 g/ha [1, 3]: 95 to 100%
pest or weed control at 70 g/ha [1, 4]: 95 to 100%
pest or weed control at 140 g/ha [1, 4]: 95 to 100%
pest or weed control at 70 g/ha [1, 5]: 75 to 84%
pest or weed control at 140 g/ha [1, 5]: 85 to 94%
pest or weed control at 70 g/ha [1, 6]: 95 to 100%
pest or weed control at 140 g/ha [1, 6]: 95 to 100%
pest or weed control at 70 g/ha [1, 7]: 95 to 100%
pest or weed control at 140 g/ha [1, 7]: 95 to 100%
pest or weed control at 70 g/ha [1, 8]: 85 to 94%
pest or weed control at 140 g/ha [1, 8]: 95 to 100%
pest or weed control at 70 g/ha [1, 9]: 60 to 74%
pest or weed control at 140 g/ha [1, 9]: 75 to 84%
pest or weed control at 70 g/ha [2, 10]: 95 to 100%
pest or weed control at 140 g/ha [2, 10]: 95 to 100%
pest or weed control at 70 g/ha [2, 11]: 85 to 94%
pest or weed control at 140 g/ha [2, 11]: 95 to 100%
pest or weed control at 70 g/ha [2, 12]: 85 to 94%
pest or weed control at 140 g/ha [2, 12]: 95 to 100%
pest or weed control at 70 g/ha [2, 13]: 0 to 29%
pest or weed control at 140 g/ha [2, 13]: 0 to 29%
pest or weed control at 70 g/ha [2, 14]: 30 to 44%
pest or weed control at 140 g/ha [2, 14]: 60 to 74%
pest or weed control at 70 g/ha [2, 15]: 85 to 94%
pest or weed control at 140 g/ha [2, 15]: 95 to 100%
pest or weed control at 70 g/ha [2, 16]: 75 to 84%
pest or weed control at 140 g/ha [2, 16]: 85 to 94%
pest or weed control at 70 g/ha [2, 17]: 95 to 100%
pest or weed control at 140 g/ha [2, 17]: 95 to 100%

Source: US9113629B2, “4-amino-6-(4-substituted-phenyl)-picolinates and 6-amino-2-(4-substituted-phenyl)-pyrimidine-4-carboxylates and their use as herbicides” (DOW AGROSCIENCES LLC, priority 2013, dated 2015)
